From patent US20090192077A1, “North-2'deoxy -methanocarbathymidines as antiviral agents for treatment of kaposi's sarcoma-associated herpes virus” (priority 2005, published 2009)

Columns and labels:
BCBL-1 cells = test: Intracellular phosphorylation in KSHV-infected BCBL-1 cells (HPLC of methanolic extracts)
Protocol: Exponentially growing BCBL-1 cells or CEM-SS cells (a human T cell line) were washed three times with PBS and cultured in serum free AIM-V w/BSA medium (Invitrogen) at 2×10^5 cells/mL in the absence (unstimulated control) or presence of 20 ng/mL PMA. After 24 hours, unstimulated and PMA-stimulated cells were harvested, washed once with PBS and resuspended in serum free AIM-V […] radiolabeled compound [^3H]-(N)-MCT, [^3H]-CDV or [^3H]-GCV. Control cultures containing the same concentration of the test compounds but without the radiolabeled formulations were simultaneously set up in an identical manner to assess the cell counts and to evaluate their anti-KSHV activity. In selected experiments, 5′-ET was added at 10˜50 μM to investigate the changes in the anti-KSHV activity and intracellular phosphorylation profiles of the test compounds. The cells were harvested after 24 or 72 hours of incubation.
Upon harvest, the cells were centrifuged at 1,500 rpm for 10 min and washed once with cold PBS. The cell pellets were resuspended in 250 μL of 60% methanol and heated at 95° C. for 3 min, followed by a microcentrifugation at 12,000 g for 10 min at 4° C. The clarified supernatant fractions were evaporated under nitrogen, redissolved in 250 μL of water and subjected to HPLC separation of the phosphorylated metabolites as described in detail elsewhere (Noy, R. et al. 2002 Mol Cancer Ther 1:585-93; Zalah, L. et al. 2002 Antiviral Res 55:63-75). Fractions containing radiolabeled nucleotides were quantitated based on the known specific activity of the parent tritiated nucleoside (Noy, R. et al. 2002 Mol Cancer Ther 1:585-93; Zalah, L. et al. 2002 Antiviral Res 55:63-75).

CEM-SS cells = test: Intracellular phosphorylation in uninfected CEM-SS cells; conditions: 10 μM N-MCT, with or without PMA-stimulation
Protocol: Exponentially growing BCBL-1 cells or CEM-SS cells (a human T cell line) were washed three times with PBS and cultured in serum free AIM-V w/BSA medium (Invitrogen) at 2×10^5 cells/mL in the absence (unstimulated control) or presence of 20 ng/mL PMA. After 24 hours, unstimulated and PMA-stimulated cells were harvested, washed once with PBS and resuspended in serum free AIM-V w/BSA medium at 2×10^5 cells/mL without PMA in the absence or presence of 10 μM N-MCT, CDV or GCV and 5 μCi/mL of the corresponding radiolabeled compound [^3H]-(N)-MCT, [^3H]-CDV or [^3H]-GCV. Control cultures containing the same concentration of the test compounds but without the radiolabeled formulations were simultaneously set up in an identical manner to assess the cell counts and to evaluate their anti-KSHV activity. In selected experiments, 5′-ET was added at 10˜50 μM to investigate the changes in the anti-KSHV activity and intracellular phosphorylation profiles of the test compounds. The cells were harvested after 24 or 72 hours of incubation.
Upon harvest, the cells were centrifuged at 1,500 rpm for 10 min and washed once with cold PBS. […] Fractions containing radiolabeled nucleotides were quantitated based on the known specific activity of the parent tritiated nucleoside (Noy, R. et al. 2002 Mol Cancer Ther 1:585-93; Zalah, L. et al. 2002 Antiviral Res 55:63-75).

HSV-1 TK = HSV-1 TK (Human herpesvirus 1, UniProt P0DTH5); conditions: cited from earlier work
EBV TK = EBV TK (Epstein-Barr virus, UniProt P03177); conditions: cited from earlier work
human cellular TK = conditions: cited from earlier work

Sequence of HSV-1 TK (P0DTH5 whole entry): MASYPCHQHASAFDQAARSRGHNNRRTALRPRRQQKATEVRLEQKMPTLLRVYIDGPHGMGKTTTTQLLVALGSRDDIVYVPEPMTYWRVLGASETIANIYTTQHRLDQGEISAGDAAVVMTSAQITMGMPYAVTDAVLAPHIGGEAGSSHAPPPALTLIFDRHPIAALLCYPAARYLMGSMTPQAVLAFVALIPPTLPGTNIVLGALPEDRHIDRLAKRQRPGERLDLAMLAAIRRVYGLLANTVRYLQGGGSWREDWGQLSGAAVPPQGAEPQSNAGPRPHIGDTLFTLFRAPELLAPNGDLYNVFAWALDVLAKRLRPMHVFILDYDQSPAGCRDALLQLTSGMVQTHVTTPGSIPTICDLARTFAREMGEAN
Sequence of EBV TK (P03177 whole entry): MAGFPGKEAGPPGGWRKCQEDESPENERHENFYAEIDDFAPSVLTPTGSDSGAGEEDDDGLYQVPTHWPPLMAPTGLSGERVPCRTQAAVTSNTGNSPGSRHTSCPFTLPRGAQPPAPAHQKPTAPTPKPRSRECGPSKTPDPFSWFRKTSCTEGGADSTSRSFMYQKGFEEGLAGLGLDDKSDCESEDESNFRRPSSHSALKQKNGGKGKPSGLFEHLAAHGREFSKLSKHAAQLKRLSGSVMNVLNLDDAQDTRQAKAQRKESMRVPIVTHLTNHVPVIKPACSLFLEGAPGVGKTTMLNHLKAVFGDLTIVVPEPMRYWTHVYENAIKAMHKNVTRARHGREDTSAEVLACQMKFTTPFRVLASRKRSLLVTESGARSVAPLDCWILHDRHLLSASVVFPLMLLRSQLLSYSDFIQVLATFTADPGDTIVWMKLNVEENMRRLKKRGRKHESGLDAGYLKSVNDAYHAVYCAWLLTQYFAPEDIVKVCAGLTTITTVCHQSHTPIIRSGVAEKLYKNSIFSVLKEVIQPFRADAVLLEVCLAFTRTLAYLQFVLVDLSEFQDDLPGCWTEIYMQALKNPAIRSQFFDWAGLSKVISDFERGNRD

intracellular level compared with CDV-DP and GCV-TP (BCBL-1 cells; 10 μM of each compound, up to 72 hours, especially PMA-stimulated BCBL-1) | level of phosphorylated metabolite in the presence of 50 μM 5'-ET (BCBL-1 cells; PMA-induced BCBL-1, 1, 3 or 10 μM N-MCT) | accumulation of phosphorylated metabolite in uninfected cells (CEM-SS cells) | Structure (SMILES) | inhibitory activity against HSV-1 TK (HSV-1 TK) | inhibitory activity against EBV TK (EBV TK) | inhibitory activity against human cellular TK (human cellular TK)
significantly higher | substantially decreased | no appreciable accumulations | Cc1cn([C@H]2C[C@H](O)[C@]3(COP(=O)(O)OP(=O)(O)OP(=O)(O)O)C[C@H]23)c(=O)[nH]c1=O [N-MCT-TP, North-methanocarbathymidine triphosphate] |  |  | 
 |  |  | C#CC(O)[C@H]1O[C@@H](n2cc(C)c(=O)[nH]c2=O)C[C@@H]1O (stereo partly drawn) [5′-ET, 5′-ethynylthymidine] | strong inhibitory activity | strong inhibitory activity | not against human cellular TK
